Experimental data from patent US10189795B2, “Aryl amine substituted quinoxaline used as anticancer drugs” (priority 2014, dated 2019).

Legend:
Type in all cases: cell-based
H2170 = experiment: cell viability of H2170 cells, 1 and 10 uM; conditions: Homo sapiens, NCI-H2170
Procedure: [Worded in the source for another cell line; this cell line is reported under the same test.] (§1) Sorafenib (Nexavar), erlotinib (Tarceva) and Paclitaxel were kindly provided by Bayer Pharmaceuticals (Pittsburgh, Pa., USA) and Roche Pharmaceuticals (Basel, Switzerland) respectively. Okadaic acid (OA) was purchased from Cayman Chemical (Ann Arbor, Mich., USA) and z-VAD-fmk was obtained from Sigma (St. Louis, Mo., USA). For in vitro studies, drugs at various concentrations were dissolved in dimethyl sulfoxide (DMSO), and added to cells in Dulbecco's modified Eagle's medium (DMEM) or Roswell Park Memorial Institute (RPMI) containing 5% fetal bovine serum (FBS).
(§2) The Sk-Hep1, PLC/PRF/5 (PLC) and Hep3B cell lines were obtained from American Type Culture Collection (ATCC; Manassas, Va., USA). The Huh-7 HCC cell line was obtained from the Health Science Research Resources Bank (HSRRB; Osaka, Japan; JCRB0403). Cells were maintained in DMEM supplemented with 10% FBS in a 37° C. humidified incubator in an atmosphere of 5% CO^2 in air.

A549 = experiment: cell viability of A549 cells, 1 and 10 uM; conditions: Homo sapiens
Procedure: [Worded in the source for another cell line; this cell line is reported under the same test.] as §1, §2

SW900 = experiment: cell viability of SW900 cells, 1 and 10 uM; conditions: Homo sapiens
Procedure: [Worded in the source for another cell line; this cell line is reported under the same test.] as §1, §2

NCI-H226 = experiment: cell viability of NCI-H226 cells, 1 and 10 uM; conditions: Homo sapiens
Procedure: [Worded in the source for another cell line; this cell line is reported under the same test.] as §1, §2

H520 = experiment: cell viability of H520 cells, 1 and 10 uM; conditions: Homo sapiens, NCI-H520
Procedure: [Worded in the source for another cell line; this cell line is reported under the same test.] as §1, §2

NCI-1703 = experiment: cell viability of NCI-1703 cells, 1 and 10 uM of each erlotinib derivative, and IC50; conditions: Homo sapiens; for IC50: cell viability
Procedure: [Worded in the source for another cell line; this cell line is reported under the same test.] as §1, §2

H358 = experiment: cell viability of H358 cells, 1 and 10 uM; conditions: Homo sapiens, NCI-H358
Procedure: [Worded in the source for another cell line; this cell line is reported under the same test.] as §1, §2

SMILES	viability at 1 µM (H2170) [%]	viability at 10 µM (H2170) [%]	viability at 1 µM (A549) [%]	viability at 10 µM (A549) [%]	viability at 1 µM (SW900) [%]	viability at 10 µM (SW900) [%]	viability at 1 µM (NCI-H226) [%]	viability at 10 µM (NCI-H226) [%]	viability at 1 µM (H520) [%]	viability at 10 µM (H520) [%]	viability at 1 µM (NCI-1703) [%]	viability at 10 µM (NCI-1703) [%]	viability at 1 µM (H358) [%]	viability at 10 µM (H358) [%]	IC50 (NCI-1703) [µM]
COc1ccc(Nc2nc3ccc([N+](=O)[O-])cc3nc2Nc2ccc(OC)cc2)cc1 [TD602, N^2,N^3-bis(4-methoxyphenyl)-6-nitroquinoxaline-2,3-diamine]	112 ± 3.97	7.14 ± 4.42	47.4 ± 2.4	10 ± 0.8	120 ± 5.8	2.05 ± 2.45	98.1 ± 5.9	8.1 ± 0.4	104 ± 2.31	0.89 ± 0.41	42 ± 1.1	9.8	58.3 ± 9.2	12 ± 0.5	–
C#Cc1cccc(Nc2nc3cc([N+](=O)[O-])ccc3nc2Nc2ccc(O)cc2C)c1 [TD625, 4-(2-(3-ethynylphenylamino)-7-nitroquinoxalin-3-ylamino)-3-methylphenol]	–	–	73.7 ± 3	–	–	–	115 ± 7.2	–	–	–	224 ± 7	–	92.6 ± 7.4	–	–
FC(F)(F)c1cc(Nc2nc3ccccc3nc2Cl)ccc1Cl [TD79, 3-chloro-N-(4-chloro-3-(trifluoromethyl)phenyl)quinoxalin-2-amine]	98.5 ± 1.56	102 ± 5.66	96.5 ± 4.4	71.6 ± 10.1	98.9 ± 3.79	88.2 ± 19.9	131 ± 14.3	125 ± 10.5	96.6 ± 5.57	99 ± 6.01	123.7 ± 0.9	64.8 ± 4.5	114 ± 2.4	87.7 ± 1.8	–
c1ccc(Nc2nc3ccccc3nc2Nc2ccccc2)cc1 [TD55, N^2,N^3-diphenylquinoxaline-2,3-diamine]	102.7 ± 0.73	94.8 ± 6.05	100 ± 7.2	36.5 ± 5.9	100 ± 6.69	88.3 ± 1.29	106 ± 17.3	96.4 ± 7.4	89.9 ± 1.02	59.2 ± 15.8	64.2 ± 5.3	49.9 ± 4.8	110 ± 14.2	42.1 ± 0.6	8.3
O=[N+]([O-])c1ccc2nc(Nc3ccc(Cl)c(F)c3)c(Nc3ccc(Cl)c(F)c3)nc2c1 [TD624, N^2,N^3-bis(4-chloro-3-fluorophenyl)-6-nitroquinoxaline-2,3-diamine]	–	–	14.3 ± 3.6	–	–	–	15.7 ± 0.8	–	–	–	90.8 ± 4.8	–	11.9 ± 1	–	–
Clc1cccc(Nc2nc3ccccc3nc2Nc2cccc(Cl)c2)c1 [TD56, N^2,N^3-bis(3-chlorophenyl)quinoxaline-2,3-diamine]	95 ± 0.91	32.5 ± 14.1	–	–	118 ± 5.41	1.46 ± 3.6	115.4 ± 0.8	19 ± 2	98.4 ± 6.37	4.76 ± 0.24	49.9 ± 4.7	28.8 ± 2.3	–	–	–
COc1ccc(Nc2nc3ccc([N+](=O)[O-])cc3nc2Nc2ccc(F)cc2)cc1 [TD631, N^3-(4-fluorophenyl)-N^2-(4-methoxyphenyl)-6-nitroquinoxaline-2,3-diamine]	–	–	58.9 ± 3.1	–	–	–	35.8 ± 6.9	–	–	–	42.5 ± 2.8	–	40.4 ± 1.9	–	–
O=[N+]([O-])c1ccc2nc(Nc3cccc(O)c3)c(Nc3cccc(O)c3)nc2c1 [TD613, 3-(2-(3-hydroxyphenylamino)-6-nitroquinoxalin-3-ylamino)phenol]	108 ± 1.99	11.6 ± 1.38	105 ± 3.4	9.5 ± 0.7	116 ± 7.2	80.9 ± 3.8	75.5 ± 7.9	7 ± 0.3	99.45 ± 0.5	18.8 ± 0.22	86 ± 0.5	24.8 ± 2	69.9 ± 60.7	12 ± 0.5	–
c1ccc(CNc2nc3ccccc3nc2NCc2ccccc2)cc1 [TD54, N^2,N^3-dibenzylquinoxaline-2,3-diamine]	100 ± 4.93	79.1 ± 7.69	–	–	125 ± 27	126 ± 10.6	120 ± 4.9	110.9 ± 0.8	118 ± 3	102 ± 1.46	127 ± 2	96.7 ± 4.2	–	–	–
COC(=O)c1ccc2nc(Nc3ccc(OC(F)(F)F)cc3)c(Nc3ccc(OC(F)(F)F)cc3)nc2c1 [TD94, methyl 2,3-bis((4-(trifluoromethoxy)phenyl)amino)quinoxaline-6-carboxylate]	–	–	49 ± 6.5	10.8 ± 0.9	–	–	32.1 ± 2.7	8 ± 0.1	–	–	29.9 ± 6.8	19.5 ± 1.1	13 ± 0.2	15.7 ± 5.9	0.1
Cc1cc(Nc2nc3ccc([N+](=O)[O-])cc3nc2Nc2ccc(O)cc2)n[nH]1 [TD628, 4-(2-(5-methyl-1H-pyrazol-3-ylamino)-6-nitroquinoxalin-3-ylamino)phenol]	–	–	–	–	–	–	152 ± 1.7	–	–	–	147 ± 4.5	–	140 ± 7.3	–	–
Cc1ccc(F)c(Nc2nc3ccccc3nc2Nc2cc(C)ccc2F)c1 [TD58, N^2,N^3-bis(2-fluoro-5-methylphenyl)quinoxaline-2,3-diamine]	92.8 ± 2.03	83 ± 3.41	–	–	111 ± 1.54	91.8 ± 9.78	123 ± 3.6	74.9 ± 1.5	96.2 ± 1.22	95.6 ± 4.66	127 ± 2.9	98.9 ± 1.1	–	–	–
O=[N+]([O-])c1ccc2nc(Nc3ccc(F)cc3)c(Nc3ccc(F)cc3)nc2c1 [TD620, N^2,N^3-bis(4-fluorophenyl)-6-nitroquinoxaline-2,3-diamine]	–	–	48.7 ± 8.4	7.8 ± 0.4	–	–	132 ± 5	17.9 ± 0.6	–	–	26.2 ± 0.6	21 ± 1.7	24.2 ± 1.4	12.6 ± 0.7	0.3
COc1ccc(Nc2nc3ccc([N+](=O)[O-])cc3nc2Nc2ccc(C(F)(F)F)cc2)cc1 [TD626, N^3-(4-(trifluoromethyl)phenyl)-N^2-(4-methoxyphenyl)-6-nitroquinoxaline-2,3-diamine]	–	–	40.4 ± 0.8	–	–	–	39 ± 2.2	–	–	–	111 ± 1.3	–	24.3 ± 3.6	–	–
NS(=O)(=O)c1ccc(Nc2nc3ccc([N+](=O)[O-])cc3nc2Nc2ccc(S(N)(=O)=O)cc2)cc1 [TD629, N^2,N^3-bis(4-phenylsulfonamide)-6-nitroquinoxaline-2,3-diamine]	–	–	118 ± 1.2	–	–	–	140 ± 1.6	–	–	–	132.8 ± 1	–	113 ± 3.6	–	–
CCc1cccc(Nc2nc3ccccc3nc2Nc2cccc(CC)c2)c1 [TD59, N^2,N^3-bis(3-ethylphenyl)quinoxaline-2,3-diamine]	88.4 ± 2.01	8.96 ± 1.43	164.6 ± 0.1	24.1 ± 3.9	110 ± 1.8	–	122 ± 2.6	32.5 ± 2.5	88.3 ± 1.5	0.41 ± 0.32	114 ± 7.4	26.4 ± 0.7	117 ± 12.1	19 ± 1.5	–
N#CCc1ccc(Nc2nc3ccccc3nc2Nc2ccc(CC#N)cc2)cc1 [TD62, 2,2′-((quinoxaline-2,3-diylbis(azanediyl))bis(4,1-phenylene))diacetonitrile]	92.5 ± 1.41	85.3 ± 4.56	166 ± 23.1	120 ± 29	128 ± 1.8	128 ± 6.18	86 ± 2	90.1 ± 8.2	103 ± 1.7	100 ± 2.46	112 ± 3.6	65.2 ± 0.6	121 ± 2.2	97.4 ± 8.1	–
FC(F)(F)c1cccc(Nc2nc3ccccc3nc2Nc2cccc(C(F)(F)F)c2)c1 [TD60, N^2,N^3-bis(3-(trifluoromethyl)phenyl)quinoxaline-2,3-diamine]	72.3 ± 0.89	0.41 ± 0.65	91.3 ± 4	21.8 ± 1.4	19.3 ± 6.18	–	92.5 ± 1.7	15.9 ± 1	21.8 ± 1.52	0.36 ± 0.18	51.9 ± 2.9	26.1 ± 0.8	55.3 ± 1.9	18.1 ± 1.3	–
c1ccc(Oc2ccc(Nc3nc4ccccc4nc3Nc3ccc(Oc4ccccc4)cc3)cc2)cc1 [TD53, N^2,N^3-bis(4-phenoxyphenyl)quinoxaline-2,3-diamine]	99.7 ± 6	59.2 ± 1.25	99.4 ± 6.9	82.7 ± 99.9	121 ± 9.01	–	86.2 ± 5.7	56.8 ± 2.7	101.7 ± 0.34	10.6 ± 0.58	68.4 ± 1.4	46.7 ± 0.2	120 ± 9.2	41.9 ± 3.9	7.4
